For test [1], the target named is GST-tagged truncated LRRK2 (Homo sapiens (Human), UniProt Q5S007). The test is described as follows: LRRK2 Lantha Screen kinase assay. It counts as biochemical. The note with it: geometric mean of 2-5 determinations unless otherwise indicated (a: >=6 determinations; b: single determination); read-out: LRRK2 WT IC50.
Method: LRRK2 kinase activity was measured using Lantha Screen technology from Invitrogen. GST-tagged truncated LRRK2 from Invitrogen (Cat # PV4874) was incubated with a fluorescein-labeled peptide substrate based upon ezrin/radixin/moesin (ERM), also known as LRRKtide (Invitrogen cat #PR8976A), in the presence of a dose response of compound. Upon completion, the assay was stopped and detected with a terbium labeled anti-phospho-ERM antibody (Invitrogen, cat #PR8975A). […] Aliquots (3.5 μL) of the 100% DMSO dose response were mixed with 46.5 μL water then 1 μL of this mixture was added to the 3 μL substrate mix in the 384-well plate. The kinase reaction was started with 3 μL of a working solution of LRRK2 enzyme at a concentration of 4 μg/mL. […] The reaction was allowed to progress at room temperature for two hours and then stopped with the addition of 7 μL of detection buffer (20 mM Tris pH 7.6, 0.01% NP-40, 0.02% NaN3, 6 mM EDTA with 2 nM terbium labeled anti-phospho-ERM).
A further test deals with mutant G2019S LRRK2 (Homo sapiens (Human), UniProt Q5S007, G2019S). The test is described as follows: LRRK2 Lantha Screen kinase assay, mutant enzyme. The note with it: geometric mean of 2-5 determinations unless otherwise indicated (a: >=6 determinations; b: single determination). Format: biochemical.

pIC50: −log10 of the molar value.

One may read the pIC50 as −log10 of the IC50, conventionally taken in molar units.

GST-tagged truncated LRRK2, sequence (Q5S007 970-2527): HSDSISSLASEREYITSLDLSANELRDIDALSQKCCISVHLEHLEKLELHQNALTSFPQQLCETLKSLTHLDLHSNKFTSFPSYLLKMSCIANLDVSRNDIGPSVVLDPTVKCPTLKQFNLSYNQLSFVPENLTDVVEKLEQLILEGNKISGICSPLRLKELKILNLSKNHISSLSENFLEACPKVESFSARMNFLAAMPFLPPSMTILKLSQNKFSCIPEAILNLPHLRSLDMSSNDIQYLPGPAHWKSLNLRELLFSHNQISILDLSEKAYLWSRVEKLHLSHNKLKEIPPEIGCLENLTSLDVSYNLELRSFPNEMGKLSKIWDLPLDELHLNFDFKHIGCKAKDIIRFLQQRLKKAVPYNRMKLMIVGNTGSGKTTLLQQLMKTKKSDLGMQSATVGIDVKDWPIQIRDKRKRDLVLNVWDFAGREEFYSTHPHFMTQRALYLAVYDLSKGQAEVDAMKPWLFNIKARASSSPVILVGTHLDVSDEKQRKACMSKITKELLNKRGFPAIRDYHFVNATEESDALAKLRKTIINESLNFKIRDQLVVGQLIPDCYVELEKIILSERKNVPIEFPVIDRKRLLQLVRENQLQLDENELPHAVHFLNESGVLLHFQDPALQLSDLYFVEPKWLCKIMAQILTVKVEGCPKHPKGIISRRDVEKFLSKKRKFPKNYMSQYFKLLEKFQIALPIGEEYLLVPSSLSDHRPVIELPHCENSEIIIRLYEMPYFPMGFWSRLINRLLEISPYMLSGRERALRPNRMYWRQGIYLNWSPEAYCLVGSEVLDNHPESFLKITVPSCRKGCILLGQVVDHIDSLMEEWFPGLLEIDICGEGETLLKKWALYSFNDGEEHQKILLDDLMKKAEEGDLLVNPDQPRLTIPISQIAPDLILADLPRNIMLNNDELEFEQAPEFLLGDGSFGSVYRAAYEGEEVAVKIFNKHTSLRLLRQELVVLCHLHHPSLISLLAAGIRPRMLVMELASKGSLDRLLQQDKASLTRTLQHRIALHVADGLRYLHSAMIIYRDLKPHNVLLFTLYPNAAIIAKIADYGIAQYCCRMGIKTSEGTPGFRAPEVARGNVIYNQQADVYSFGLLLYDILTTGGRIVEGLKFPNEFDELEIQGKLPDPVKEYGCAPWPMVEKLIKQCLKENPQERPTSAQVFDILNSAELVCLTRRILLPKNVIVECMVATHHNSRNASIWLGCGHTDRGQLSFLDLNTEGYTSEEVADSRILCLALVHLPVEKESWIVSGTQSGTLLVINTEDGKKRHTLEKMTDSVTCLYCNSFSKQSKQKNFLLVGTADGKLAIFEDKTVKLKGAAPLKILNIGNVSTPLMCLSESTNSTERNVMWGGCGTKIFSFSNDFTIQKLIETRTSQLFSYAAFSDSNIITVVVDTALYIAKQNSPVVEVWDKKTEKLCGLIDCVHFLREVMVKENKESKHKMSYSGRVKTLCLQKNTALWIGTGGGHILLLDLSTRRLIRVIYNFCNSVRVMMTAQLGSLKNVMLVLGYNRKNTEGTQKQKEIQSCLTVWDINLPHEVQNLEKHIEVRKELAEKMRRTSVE
mutant G2019S LRRK2, sequence (Q5S007 970-2527 G2019S): as the sequence (Q5S007 970-2527) above, with G1050S counted along it

In the case of `c1cc(-c2ncon2)cc(-c2c[nH]c3ncnc(N4CCOCC4)c23)c1` [Example 201, 4-(Morpholin-4-yl)-5-[3-(1,2,4-oxadiazol-3-yl)phenyl]-7H-pyrrolo[2,3-d]pyrimidine], the pIC50 in test [1] was 6.89; on mutant G2019S LRRK2, 6.32.

For the compound `Cc1cc(C2CN(c3ncnc4[nH]cc(-c5cccc(C#N)c5)c34)CCO2)on1` (stereo not drawn) [Example 202, 3-{4-[2-(3-Methyl-1,2-oxazol-5-yl)morpholin-4-yl]-7H-pyrrolo[2,3-d]pyrimidin-5-yl}benzonitrile], the negative-log IC50 (pIC50) in test [1] is 7.19; against mutant G2019S LRRK2, 6.46.

Regarding `Cc1c(C#N)cccc1-c1c[nH]c2ncnc(N3CCOCC3)c12` [Example 203, 2-methyl-3-[4-(morpholin-4-yl)-7H-pyrrolo[2,3-d]pyrimidin-5-yl]benzonitrile], the pIC50 in test [1] is 7.88; against mutant G2019S LRRK2, 7.05.

Take `O=c1cc(-c2c[nH]c3ncnc(N4CCOCC4)c23)cc[nH]1` [Example 204, 4-[4-(morpholin-4-yl)-7H-pyrrolo[2,3-d]pyrimidin-5-yl]pyridin-2(1H)-one]: the figures for the pIC50 (in test [1]; at mutant G2019S LRRK2) were 7.93 and 7.49, respectively.

For the compound `c1nc(N2CCOCC2)c2c(-c3cnc4sccn34)c[nH]c2n1` [Example 205, 5-(imidazo[2,1-b][1,3]thiazol-5-yl)-4-(morpholin-4-yl)-7H-pyrrolo[2,3-d]pyrimidine], the values for the pIC50 (in test [1]; against mutant G2019S LRRK2) were 7.80 and 7.22, respectively.

Consider `N#Cc1cccc(-c2c[nH]c3ncnc(N4CC5COCC5C4)c23)c1` [Example 207, rel-3-{4-[(3aS,6aS)-tetrahydro-1H-furo[3,4-c]pyrrol-5(3H)-yl]-7H-pyrrolo[2,3-d]pyrimidin-5-yl}benzonitrile], for which the pIC50 in test [1] was 6.65; on mutant G2019S LRRK2, 6.16.

As to `N#Cc1cccc(-c2c[nH]c3ncnc(N4CCOC(C#N)C4)c23)c1` (stereo not drawn) [Example 209, 4-[5-(3-cyanophenyl)-7H-pyrrolo[2,3-d]pyrimidin-4-yl]morpholine-2-carbonitrile], the results for the pIC50 (in test [1]; on mutant G2019S LRRK2) were 7.37 and 6.47, respectively.

On to `CC1(C)CN(c2ncnc3[nH]cc(-c4cccc(C#N)c4)c23)CCO1` [Example 210, 3-[4-(2,2-dimethylmorpholin-4-yl)-7H-pyrrolo[2,3-d]pyrimidin-5-yl]benzonitrile], for which the pIC50 was 7.45 in test [1] and 6.52 on mutant G2019S LRRK2.

For `N#Cc1ccc(-c2c[nH]c3ncnc(N4CCOCC4)c23)s1` [Example 211, 5-[4-(morpholin-4-yl)-7H-pyrrolo[2,3-d]pyrimidin-5-yl]thiophene-2-carbonitrile], the pIC50 in test [1] is 7.66; against mutant G2019S LRRK2, 6.93.

Consider `c1cnn2c(-c3c[nH]c4ncnc(N5CCOCC5)c34)cnc2c1` [Example 212, 5-(imidazo[1,2-b]pyridazin-3-yl)-4-(morpholin-4-yl)-7H-pyrrolo[2,3-d]pyrimidine], for which the figures for the pIC50 (in test [1]; against mutant G2019S LRRK2) were 8.20 and 7.91, respectively.

On to `NC(=O)c1cccc(-c2c[nH]c3ncnc(N4CCOCC4)c23)n1` [Example 215, 6-[4-(morpholin-4-yl)-7H-pyrrolo[2,3-d]pyrimidin-5-yl]pyridine-2-carboxamide], for which the pIC50 in test [1] is 7.51; against mutant G2019S LRRK2, 7.10.

As to `c1cnc2c(-c3c[nH]c4ncnc(N5CCOCC5)c34)cnn2c1` [Example 216, 4-(morpholin-4-yl)-5-(pyrazolo[1,5-a]pyrimidin-3-yl)-7H-pyrrolo[2,3-d]pyrimidine], the pIC50 in test [1] is 7.45; against mutant G2019S LRRK2, 6.92.

Turning to `Cc1nc2sccn2c1-c1c[nH]c2ncnc(N3CCOCC3)c12` [Example 218, 5-(6-methylimidazo[2,1-b][1,3]thiazol-5-yl)-4-(morpholin-4-yl)-7H-pyrrolo[2,3-d]pyrimidine], the negative-log IC50 (pIC50) in test [1] was 7.43; against mutant G2019S LRRK2, 6.87.

Take `N#Cc1cccc(-c2c[nH]c3ncnc(N4CCOC(c5ccno5)C4)c23)c1` (stereo not drawn) [Example 219, 3-{4-[2-(1,2-oxazol-5-yl)morpholin-4-yl]-7H-pyrrolo[2,3-d]pyrimidin-5-yl}benzonitrile]: the values for the pIC50 (in test [1]; against mutant G2019S LRRK2) were 7.43 and 6.63, respectively.

As to `Cn1cc(-c2c[nH]c3ncnc(N4CCOCC4)c23)nc1C#N` [Example 220, 1-methyl-4-[4-(morpholin-4-yl)-7H-pyrrolo[2,3-d]pyrimidin-5-yl]-1H-imidazole-2-carbonitrile], the pIC50 was 8.13 in test [1] and 7.83 against mutant G2019S LRRK2.

The record behind these values is patent publication US9156845B2, “4-(substituted amino)-7H-pyrrolo[2,3-d] pyrimidines as LRRK2 inhibitors” (Pfizer Inc., priority 2012, dated 2015).
